Data published in patent publication EP2878677A1, “Activators of protein phosphatase 5” (Deutsches Zentrum für Neurodegenerative Erkrankungen e.V. …, priority 2013, dated 2015).

Biological target: T1, PPH-5 (Caenorhabditis elegans, UniProt Q9NES8)
T1 construct: made in house
T1 sequence (Q9NES8 1-496): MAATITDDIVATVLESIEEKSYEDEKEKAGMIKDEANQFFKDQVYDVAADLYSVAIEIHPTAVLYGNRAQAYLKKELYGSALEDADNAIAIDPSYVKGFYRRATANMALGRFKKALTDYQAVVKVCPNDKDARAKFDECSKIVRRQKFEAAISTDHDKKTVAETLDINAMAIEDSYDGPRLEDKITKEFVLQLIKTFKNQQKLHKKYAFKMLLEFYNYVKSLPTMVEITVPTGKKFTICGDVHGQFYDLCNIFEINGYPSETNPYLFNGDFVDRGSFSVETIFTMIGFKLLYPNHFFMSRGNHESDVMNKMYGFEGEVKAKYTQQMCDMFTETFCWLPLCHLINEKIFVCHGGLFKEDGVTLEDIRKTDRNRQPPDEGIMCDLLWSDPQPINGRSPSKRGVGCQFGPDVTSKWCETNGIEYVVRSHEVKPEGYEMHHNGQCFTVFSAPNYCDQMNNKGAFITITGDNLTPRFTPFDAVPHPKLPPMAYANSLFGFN
Assay: pNPP-based phosphatase assay with nematode PPH-5
Assay type: biochemical, C. elegans
Conditions: for Kd: apparent KD-value in the pNPP-based assay, 20 °C; for effect on the enzymatic activity of PPH-5 in the compound screen: initial screen of 15,000 compounds, pNPP, P5SAs at 50 ng/mL
Method: At some instances, the present application refers to "measuring the enzymatic activity" of an enzyme. As used herein, this means that a measured value that is proportional to or reflects the enzymatic activity of that enzyme is measured. For example, the present application may refer to "measuring the enzymatic activity of protein phosphatase 5". Typically, this means that an in vitro reaction of protein phosphatase 5 with a suitable substrate is carried out.As the substrate para-nitrophenyl phosphate (pNPP) is used. The conditions for the phosphatase reaction are 40 mM HEPES/KOH, 20 mM KCl, 5 mM MnCl2, 1 mM DTT, pH 7.5. The reaction is carried out at 20° C. The starting concentration of pNPP is 60 mM. The concentration of the compound to be tested, if present, is in the range of 50-500 nM, preferably in the range of 100-250 nM, more preferably 50, 250 or 500 nM, more preferably 250 nM. As phosphatase, bacterially expressed and purified phosphatase is used. The concentration of the phosphatase in the reaction is 30 nM. The rate at which the dephosphorylation of this substrate proceeds is monitored, typically by measuring the rate of formation of the reaction product by spectroscopic measurements (dephosphorylation of pNPP, e.g., results in generation of p-nitrophenol, a chromogenic product with strong absorbance at about 410 nm (extinction coefficient ε = 15100 cm^-1M^-1), thus allowing to monitor generation of the reaction product by monitoring the absorbance at 410 nm). If the reaction is carried out in the presence of an excess of substrate, the initial velocity at which the reaction product is generated (i.e. the slope of the initial phase of the curve in a graph plotting the absorbance at 410 nm over time) is proportional to the enzymatic activity of protein phosphatase 5under the specific reaction conditions used. Alternatively, after starting the phosphatase reaction the reaction may be allowed to proceed for a defined incubation period (usually 30 minutes), then the reaction is stopped (for example by addition of a small volume of 1 M NaOH), and the absorbance at 410 nm is measured. Upon subtraction of the absorbance of a negative control (a reaction carried out with a non-functional, for example pre-boiled, phosphatase), the obtained value is proportional to the enzymatic activity of protein phosphatase 5 under the specific reaction conditions used (since the reaction is carried out in the presence of an excess of substrate and the incubation period is chosen such that the reaction is stopped while it is still in the quasi-linear Phase). Phosphatase activity was followed by the conversion of para-nitrophenyl phosphate (pNPP) to para-nitophenole and absorption of the product at 410 nm (ε: 15100 cm^-1 M^-1) in a Varian Cary 100 spectrophotometer (Agilent Technologies, Boeblingen, Germany). The reaction was measured in 40 mM HEPES/KOH, 20 mM KCl, 5 mM MnCl2, 1 mM DTT, pH 7.5 and 60 mM pNPP at 20 °C if not indicated otherwise. Phosphatase concentration ranged from 50 to 500 nM in the assay. If indicated, Hsp90/DAF-21 peptide was supplemented in the assay at a concentration of 60 μM. The protein phosphatase 5 is a highly regulated enzyme. The autoinhibition of the phosphatase is controlled by the N-terminal TPR domain and the C-terminal αJ helix, implying a complex mechanism to control the turnover rate (Yang et al., 2005). A compound screen was carried out to identify small molecules which can alter the activity of the phosphatase. The C. elegans homolog of protein phosphatase 5 was used (activity of nematode protein phosphatase 5 (PPH-5) at 20 °C: ∼0.62 sec^-1; mammalian PP5: ∼0.12 sec^-1). The homology between nematode PPH-5 and human PP5 is pronounced with a sequence conservation of almost 80% (Figure 6). Using the substrate para-nitrophenyl phosphate (pNPP), a library of 15,000 compounds was analyzed. […]

SMILES	fold activation ((sat.)) [fold]	Kd [µM]	effect on the enzymatic activity of PPH-5 in the compound screen	influence of MEEVD peptide on affinity to PPH-5 (60 µM MEEVD peptide, titration by phosphatase assay)	fold activation (at 714 µM) [fold]
O=c1cc2nc(-c3ccc(F)cc3)nc(SCc3ccc(Br)cc3)n2[nH]1 [P5SA-4]	7.8	25.7 ± 5.5	activating effect	–	–
CNC(=O)c1c(NC(=O)COCC(=O)Nc2sc3c(c2C(=O)NC)CCC3)sc2c1CCC2 [P5SA-5]	8.4	6.4 ± 1.8	activating effect	minor influence	–
FC(F)(F)c1c2c(nc3c(-c4ccc(Cl)cc4)cnn13)CCC2 [P5SA-1]	3.7	13.3 ± 4.2	activating effect	–	–
CN1CCc2c(sc(-n3cccc3)c2CNC(=O)NC23CC4CC(CC(C4)C2)C3)C1 [P5SA-3]	–	–	activating effect	–	4.0
COc1ccc(-c2nc(Cc3ccc(Cl)cc3)no2)cc1OC [P5SA-2]	9.6	7.8 ± 1.4	activating effect	–	–
